Measurements taken from patent US20140179681A1, “METHODS AND COMPOSITIONS OF TARGETED DRUG DEVELOPMENT” (priority 2010, published 2014).
Where two headings read alike, the source gives them in different places.

Key:
MDBK line = test: MTT Cell Proliferation Assay, MDBK cells; assay type: cell-based, bovine; conditions: Bos taurus, MDBK
Summary of the method: (§1)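 Viability was measured by mitochondrial MTT reduction after cells were exposed to compound for 3 days in reduced-serum medium. Inhibition was calculated per plate against 0.5% DMSO controls.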

EGFR = biological target: T1, EGFR (Homo sapiens, UniProt P00533); test: EGFR in-cell Western (ICW) screening protocol (EGFR inhibition assay); assay type: cell-based; set-up: ICW 1 / ICW 2 / ICW Avg: unit not given here; conditions: for ICW assay: Table 10, % Inhibition of EGF dependent EGFR phosphorylation in A431 cells, compound 125 μM in assay
T1 construct: host or cells: A431
Summary of the method: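 Serum-starved A431 cells (2 h) were pretreated with compound for 4 h at 37° C, then stimulated with EGF (10 ng/ml final, or 6.6 or 12.5 ng/ml in some runs) for 10 min. After formaldehyde fixation, phospho-EGFR (Tyr1173, or Tyr1045 in some runs) and total EGFR were detected by in-cell Western immunostaining.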

[1] = tested on: epithelial carcinoma A431 cell line; test: MTT Cell Proliferation Assay, A431 cells; assay type: cell-based; conditions: for IC50: Homo sapiens
Summary of the method: as §1

[2] = 72 h, Table 10, second of x/y(ratio): MDBK, three day treatment, unit not printed (doses in μM), read-out: MTT assay (second value)
[3] = A-431, 72 h, Table 10, first of x/y(ratio): A431, three day treatment, unit not printed (doses in μM), read-out: MTT assay (first value)

T1 sequence (P00533 25-1210): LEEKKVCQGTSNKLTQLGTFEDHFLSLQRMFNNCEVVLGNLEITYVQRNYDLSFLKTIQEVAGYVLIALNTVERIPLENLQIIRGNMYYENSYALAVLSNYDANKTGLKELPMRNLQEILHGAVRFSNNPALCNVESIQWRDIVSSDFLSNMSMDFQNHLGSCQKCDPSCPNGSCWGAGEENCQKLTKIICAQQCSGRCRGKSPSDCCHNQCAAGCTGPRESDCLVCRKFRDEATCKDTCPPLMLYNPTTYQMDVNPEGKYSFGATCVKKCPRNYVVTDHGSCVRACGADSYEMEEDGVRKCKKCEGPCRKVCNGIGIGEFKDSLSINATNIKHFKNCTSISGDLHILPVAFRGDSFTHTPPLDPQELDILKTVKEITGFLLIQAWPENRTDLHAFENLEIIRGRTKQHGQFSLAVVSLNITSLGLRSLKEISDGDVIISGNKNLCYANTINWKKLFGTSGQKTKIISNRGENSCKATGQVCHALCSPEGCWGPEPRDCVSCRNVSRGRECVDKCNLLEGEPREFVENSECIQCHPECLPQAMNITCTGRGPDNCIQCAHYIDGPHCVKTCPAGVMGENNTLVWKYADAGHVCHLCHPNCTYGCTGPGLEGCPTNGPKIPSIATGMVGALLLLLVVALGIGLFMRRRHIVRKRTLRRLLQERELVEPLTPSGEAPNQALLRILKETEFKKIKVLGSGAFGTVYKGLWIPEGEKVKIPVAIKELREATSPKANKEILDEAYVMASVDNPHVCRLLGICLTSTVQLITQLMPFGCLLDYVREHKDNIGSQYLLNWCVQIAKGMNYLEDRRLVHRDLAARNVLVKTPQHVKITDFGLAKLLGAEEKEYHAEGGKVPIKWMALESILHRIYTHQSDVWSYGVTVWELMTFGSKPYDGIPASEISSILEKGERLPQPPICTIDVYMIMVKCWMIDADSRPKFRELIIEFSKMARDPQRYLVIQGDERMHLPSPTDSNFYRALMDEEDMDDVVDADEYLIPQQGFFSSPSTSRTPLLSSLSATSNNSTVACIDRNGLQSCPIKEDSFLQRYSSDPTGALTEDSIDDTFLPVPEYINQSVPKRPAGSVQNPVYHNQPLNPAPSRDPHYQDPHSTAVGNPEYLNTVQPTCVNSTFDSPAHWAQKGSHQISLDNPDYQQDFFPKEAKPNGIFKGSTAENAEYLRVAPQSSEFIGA

Row | SMILES | IC50 (MDBK line; [2]) [µM] | ICW assay (EGFR) | IC50 [1, 3] [µM] | further results
1 | CCOc1ccccc1NC(=S)Nc1ccc(S(=O)(=O)Nc2c(C)cc(C)cc2C)cc1 [AD4-12465] | 6.54 | 31.3476 | 9.92 | –
2 | CCC(C)c1ccc(NC(=S)Nc2ccc(S(=O)(=O)Nc3ccc(OC)cc3)cc2)cc1 (stereo not drawn) [AD4-12468] | 5.41 | 77.7928 | 4.04 | –
3 | Cc1cccc(NC(=S)Nc2ccc(S(=O)(=O)Nc3cc(Cl)cc(Cl)c3)cc2)c1 [AD4-12472] | 5.42 | 64.2647 | 6.23 | –
4 | Cc1ccccc1NS(=O)(=O)c1ccc(NC(=S)Nc2ccc(F)c(Cl)c2)cc1 [AD4-12477] | 5.44 | 44.2167 | 6.65 | –
5 | COc1ccc(NC(=S)Nc2ccc(S(=O)(=O)Nc3cc(Cl)cc(Cl)c3)cc2)cc1OC [AD4-12481] | 11 | 42.006 | 10.4 | –
6 | COc1cc(NC(=S)Nc2ccc(S(=O)(=O)Nc3cc(Cl)cc(Cl)c3)cc2)cc(OC)c1 [AD4-12482] | 6.05 | 28.3382 | 6.54 | –
7 | COc1ccc(C)cc1NC(=S)Nc1ccc(S(=O)(=O)Nc2ccc(Cl)cc2)cc1 [AD4-12485] | 7.19 | 33.3993 | 6.98 | –
8 | Cc1ccccc1NS(=O)(=O)c1ccc(NC(=S)Nc2cccc(C(F)(F)F)c2)cc1 [AD4-12487] | 5.5 | 84.5602 | 6.45 | –
9 | O=S(=O)(Nc1ccc(Cl)cc1)c1ccc(NC(=S)Nc2cccc(Cl)c2)cc1 [AD4-12494] | 5.71 | 112.965 | 5.64 | –
10 | COc1ccc(C)cc1NC(=S)Nc1ccc(S(=O)(=O)Nc2cc(Cl)cc(Cl)c2)cc1 [AD4-12499] | 6.58 | 26.0767 | 6.99 | –
11 | CCCCc1ccc(NC(=S)Nc2ccc(S(=O)(=O)Nc3ccc(Cl)cc3)cc2)cc1 [AD4-12501] | 4.06 | 71.3823 | 4.06 | –
12 | COc1ccccc1NC(=S)Nc1ccc(S(=O)(=O)Nc2ccc(Cl)cc2)cc1 [AD4-12502] | 5.46 | 25.1182 | 6.97 | –
13 | CC(C)c1ccc(NC(=S)Nc2ccc(S(=O)(=O)Nc3ccc(Cl)cc3)cc2)cc1 [AD4-12503] | 5.43 | 79.4624 | 4.05 | –
14 | O=S(=O)(Nc1ccc(Cl)cc1)c1ccc(NC(=S)Nc2ccc(Br)cc2)cc1 [AD4-12504] | 15.6 | 118.46 | 11.1 | –
15 | Cc1ccc(NC(=S)Nc2ccc(S(=O)(=O)Nc3ccc(Cl)cc3)cc2)cc1Cl [AD4-12505] | 6.02 | 93.3284 | 5.69 | –
16 | O=S(=O)(Nc1cc(Cl)cc(Cl)c1)c1ccc(NC(=S)Nc2cccc(C(F)(F)F)c2)cc1 [AD4-12509] | 5.24 | 140.975 | 5.49 | –
17 | Cc1cc(C)cc(NC(=S)Nc2ccc(S(=O)(=O)Nc3ccc(Cl)cc3)cc2)c1 [AD4-12512] | 5.83 | 28.9126 | 6.4 | –
18 | COc1ccc(NC(=S)Nc2ccc(S(=O)(=O)Nc3ccccc3C)cc2)c(OC)c1 [AD4-12517] | 20 | 31.5308 | 30.4 | –
19 | CCOc1ccccc1NC(=S)Nc1ccc(S(=O)(=O)Nc2ccc(Cl)cc2)cc1 [AD4-12521] | 6.54 | 45.7824 | 6.99 | –
20 | Cc1ccc(NC(=S)Nc2ccc(S(=O)(=O)Nc3cc(Cl)cc(Cl)c3)cc2)cc1Cl [AD4-12522] | 5.33 | 123.893 | 6.2 | –
21 | COc1ccc(NC(=S)Nc2ccc(S(=O)(=O)Nc3ccc(Cl)cc3)cc2)cc1OC [AD4-12525] | 12.2 | 34.1311 | 14.8 | –
22 | COc1ccc(NC(=S)Nc2ccc(S(=O)(=O)Nc3ccccc3C)cc2)cc1OC [AD4-12527] | 20 | 31.9587 | 26.9 | –
23 | O=S(=O)(Nc1cc(Cl)cc(Cl)c1)c1ccc(NC(=S)Nc2ccc(Cl)c(Cl)c2)cc1 [AD4-12528] | 5.3 | 123.946 | 5.43 | –
24 | CCOc1ccc(NC(=S)Nc2ccc(S(=O)(=O)Nc3cc(Cl)cc(Cl)c3)cc2)cc1 [AD4-12529] | 6.47 | 63.9249 | 6.35 | –
25 | COc1ccccc1NS(=O)(=O)c1ccc(NC(=S)Nc2ccc(OC)c(OC)c2)cc1 [AD4-12537] | 38.6 | 30.7051 | 35.4 | –

Row | SMILES | IC50 (MDBK line; [2]) [µM] | ICW assay (EGFR) | IC50 [1, 3] [µM] | further results
26 | COC(=O)c1sc2cc(NC(=S)Nc3ccc(S(=O)(=O)Nc4c(C)cc(C)cc4C)cc3)ccc2c1Cl [AD4-12560] | 5.23 | 42.3275 | 8.88 | –
27 | COc1ccc(NS(=O)(=O)c2ccc(NC(=S)Nc3ccccc3C(F)(F)F)cc2)cc1 [AD4-12577] | 5.92 | 29.4151 | 6.62 | –
28 | O=S(=O)(Nc1ccccc1)c1ccc(NC(=S)Nc2ccc(Cl)cc2)cc1 [AD4-12783] | 7.62 | 57.4272 | 7 | –
29 | CCC(C)c1ccc(NC(=S)Nc2ccc(S(=O)(=O)Nc3ccccc3)cc2)cc1 (stereo not drawn) [AD4-12798] | 5.69 | 49.531 | 4.74 | –
30 | CC1CCc2cc(F)ccc2N1S(=O)(=O)c1ccc(NC(=S)Nc2ccc(Br)cc2)cc1 (stereo not drawn) [AD4-12813] | 13.6 | 26.1431 | 11.8 | –
31 | CC(C)c1ccc(NC(=S)Nc2ccc(S(=O)(=O)Nc3ccccc3)cc2)cc1 [AD4-12820] | 5.93 | 47.471 | 5.98 | –
32 | O=S(=O)(Nc1ccccc1)c1ccc(NC(=S)Nc2ccc(Cl)cc2Cl)cc1 [AD4-12822] | 7.04 | 51.4082 | 6.92 | –
33 | CCCCc1ccc(NC(=S)Nc2ccc(S(=O)(=O)Nc3ccccc3)cc2)cc1 [AD4-12823] | 4.06 | 30.8167 | 4.07 | –
34 | CC(=O)c1cccc(NC(=S)Nc2ccc(S(=O)(=O)N3c4ccc(F)cc4CCC3C)cc2)c1 (stereo not drawn) [AD4-12825] | 5.46 | 26.7866 | 6.78 | –
35 | CC1CCc2cc(F)ccc2N1S(=O)(=O)c1ccc(NC(=S)Nc2ccc(Cl)c(Cl)c2)cc1 (stereo not drawn) [AD4-12827] | 6.4 | 45.9206 | 6.49 | –
36 | CC1CCc2cc(F)ccc2N1S(=O)(=O)c1ccc(NC(=S)Nc2ccc3c(c2)OCO3)cc1 (stereo not drawn) [AD4-12828] | 63.4 | 32.6456 | 26.6 | –
37 | Cc1ccc(Cl)cc1NC(=S)Nc1ccc(S(=O)(=O)N2c3ccc(F)cc3CCC2C)cc1 (stereo not drawn) [AD4-12829] | 37.3 | 46.4407 | 37 | –
38 | CC1CCc2cc(F)ccc2N1S(=O)(=O)c1ccc(NC(=S)Nc2ccc(Br)cc2Cl)cc1 (stereo not drawn) [AD4-12832] | 16.3 | 29.02 | 7.71 | –
39 | O=S(=O)(Nc1ccccc1)c1ccc(NC(=S)Nc2ccc(Cl)c(Cl)c2)cc1 [AD4-12833] | 5.96 | 115.634 | 5.94 | –
40 | O=S(=O)(Nc1ccccc1)c1ccc(NC(=S)Nc2cccc(C(F)(F)F)c2)cc1 [AD4-12835] | 5.89 | 116.579 | 6.15 | –
41 | CC1CCc2cc(F)ccc2N1S(=O)(=O)c1ccc(NC(=S)Nc2ccc(F)c(Cl)c2)cc1 (stereo not drawn) [AD4-12836] | 8.43 | 46.1658 | 9.32 | –
42 | CC1CCc2cc(F)ccc2N1S(=O)(=O)c1ccc(NC(=S)Nc2cccc(F)c2)cc1 (stereo not drawn) [AD4-12837] | 5.68 | 35.1542 | 6.28 | –
43 | O=S(=O)(Nc1ccccc1)c1ccc(NC(=S)Nc2cccc(Cl)c2)cc1 [AD4-12842] | 5.55 | 80.8965 | 6.72 | –
44 | Cc1ccc(NC(=S)Nc2ccc(S(=O)(=O)Nc3ccccc3)cc2)cc1Cl [AD4-12844] | 6.13 | 112.768 | 6.8 | –
45 | CC1CCc2cc(F)ccc2N1S(=O)(=O)c1ccc(NC(=S)Nc2ccc(F)cc2)cc1 (stereo not drawn) [AD4-12850] | 35.8 | 42.2628 | 31.8 | –
46 | O=S(=O)(Nc1ccccc1)c1ccc(NC(=S)Nc2ccc(F)c(Cl)c2)cc1 [AD4-12851] | 5.39 | 118.637 | 6.51 | –
47 | CC1CCc2cc(F)ccc2N1S(=O)(=O)c1ccc(NC(=S)Nc2cccc(Cl)c2Cl)cc1 (stereo not drawn) [AD4-12853] | 7.51 | 36.92 | 8.76 | –
48 | CCc1ccc(NC(=S)Nc2ccc(S(=O)(=O)Nc3ccccc3)cc2)cc1 [AD4-12854] | 8.19 | 38.7055 | 6.64 | –
49 | O=S(=O)(Nc1ccccc1)c1ccc(NC(=S)Nc2cc(Cl)ccc2Cl)cc1 [AD4-12855] | 6.25 | 25.0542 | 6.83 | –
50 | Cc1ccc2nc(Nc3nc(=O)c(Cc4ccccc4)c(C)[nH]3)nc(C)c2c1 [compound 11294] | – | – | – | IC50 (MDBK line; MDBK cells, second value of cell, read-out: MTT Assay IC50(A431/MDBK): MDBK): 19.8 µM; ICW Avg (EGFR; ICW assay, average of runs 1 and 2): 33.47; ICW 1 (EGFR; ICW assay, run 1): 29.81; ICW 2 (EGFR; ICW assay, run 2): 37.13; IC50 ([1]; A-431, A431 cells, first value of cell, read-out: MTT Assay IC50(A431/MDBK): A431): 6.43 µM; MTT Assay IC50(A431/MDBK): ratio in parentheses ([1]; ratio MDBK IC50 / A431 IC50 (selectivity)): 3.08
